How the values were obtained:
lysosomal mannosidase = assay: Lysosomal mannosidase assay (pH 5.0); format: biochemical; settings: para-nitrophenyl α-mannose
Method: (§1) The assay for rat liver Golgi α-mannosidase II contained 5 mM para-nitrophenylα-mannose, 40 mM sodium acetate pH 5.6, plus serially diluted test compouunds and mannosidase enzyme in a total volume of 50 ul, in 96 well plates. Plates were incubated 45 min at 37° C., then the reaction was stopped with 50 μl of 0.5M sodium carbonate. The absorbance of reaction products was read at 405 nm. The lysosomal mannosidase was done in the same procedure but with 40 mM sodium acetate buffer pH 5.0. The numbers in the table are IC50 values in μM for inhibition of mannosidase activity.

[1] = target: T1, rat liver Golgi α-mannosidase II (Rattus norvegicus, UniProt P28494); assay: Rat liver Golgi α-mannosidase II assay; format: biochemical; settings: for IC50: para-nitrophenyl α-mannose, pH 5.6, read-out: IC50 ManII; for Ratio: ratio of lyso to ManII IC50 values
T1 construct: The assay for rat liver Golgi α-mannosidase II; from tissue; host or cells: rat liver (Golgi)
T1 sequence (P28494 1-1148): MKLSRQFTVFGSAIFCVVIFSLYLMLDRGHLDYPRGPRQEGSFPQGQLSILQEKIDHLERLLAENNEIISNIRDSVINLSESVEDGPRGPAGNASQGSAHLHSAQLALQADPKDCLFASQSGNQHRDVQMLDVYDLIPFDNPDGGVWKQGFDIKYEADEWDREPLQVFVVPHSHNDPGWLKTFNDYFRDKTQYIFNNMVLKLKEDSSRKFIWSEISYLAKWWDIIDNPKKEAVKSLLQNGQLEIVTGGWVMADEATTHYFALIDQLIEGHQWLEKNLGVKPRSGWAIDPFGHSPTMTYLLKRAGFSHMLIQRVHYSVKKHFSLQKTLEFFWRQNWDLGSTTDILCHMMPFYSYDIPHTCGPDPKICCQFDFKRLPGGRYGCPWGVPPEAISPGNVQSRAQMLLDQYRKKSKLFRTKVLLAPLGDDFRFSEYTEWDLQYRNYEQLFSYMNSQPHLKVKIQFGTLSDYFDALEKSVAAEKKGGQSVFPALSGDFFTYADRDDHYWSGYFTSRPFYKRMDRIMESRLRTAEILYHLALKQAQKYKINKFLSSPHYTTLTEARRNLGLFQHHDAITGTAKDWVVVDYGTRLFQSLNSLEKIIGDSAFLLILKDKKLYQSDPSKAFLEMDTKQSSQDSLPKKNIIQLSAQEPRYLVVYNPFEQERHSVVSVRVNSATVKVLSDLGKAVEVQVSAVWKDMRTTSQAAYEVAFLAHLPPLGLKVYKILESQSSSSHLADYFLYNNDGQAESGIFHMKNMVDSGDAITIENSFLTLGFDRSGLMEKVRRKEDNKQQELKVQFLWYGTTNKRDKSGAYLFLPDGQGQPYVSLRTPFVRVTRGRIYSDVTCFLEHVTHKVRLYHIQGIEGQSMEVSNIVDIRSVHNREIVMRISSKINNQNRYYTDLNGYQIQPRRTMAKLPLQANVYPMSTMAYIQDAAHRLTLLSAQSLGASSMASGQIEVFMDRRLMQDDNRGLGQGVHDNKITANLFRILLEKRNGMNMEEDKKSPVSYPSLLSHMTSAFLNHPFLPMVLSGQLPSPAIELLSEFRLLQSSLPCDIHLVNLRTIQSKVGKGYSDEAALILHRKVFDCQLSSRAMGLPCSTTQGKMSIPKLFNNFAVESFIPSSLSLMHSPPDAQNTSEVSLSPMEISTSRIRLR
Method: as §1, with “The absorbance of reaction products was read at 405 nm.” left out

[2] = Cellular toxicity / cell growth with compound alone (no L-PHA); format: cell-based; settings: MDAY-D2 mouse lymphoma cells; read-out: Toxicity (cellular toxicity observed with compound alone)
MDAY-D2 tumor cells [3] = assay: L-PHA toxicity assay (inhibition of oligosaccharide processing in cells); format: cell-based, mouse; settings: MDAY-D2 mouse lymphoma cells; read-out: IC50 for protection of cells from toxicity of LPHA lectin
Method: MDAY-D2 tumor cells were inoculated into 96 well micro-test plates at 2×10^4 cells/well, and containing serial dilutions of SW or SW analogues in MEM plus 10% FCS. The cells were cultured for 18-20 hr, followed by the addition of L-PHA at 25 μg/ml for an additional 24 hr. Cell proliferation was measured by adding 0.5 μCi/well of ^3 H-thymidine for 3-4 hr, harvesting onto glass fibre disks using a Titertek harvester and the disks were counted in a liquid scintillation counter. The apparent IC50 values for SW and the analogues are the drug concentrations showing 50% protection from L-PHA toxicity; that is 50% ^3 H-thymidine incorporated compared with cells grown in the absence of L-PHA. In experiments using the esterase inhibitor diethyl p-nitrophenyl phosphate, the compound was added to MDAY-D2 cells 4 hr prior to the α-mannosidase inhibitors and was present through-out the experiment.

MDAY-D2 tumor cells [4] = settings: no drug; cited from earlier work

Compound | IC50 (lysosomal mannosidase) [µM] | selectivity Mannosidase II versus lysosomal mannosidase [1] | IC50 [1] [µM] | Ratio [1] | Concentration at which toxicity was seen with compound alone [2] [µM] | IC50 (MDAY-D2 tumor cells [3]) [µM] | D50 for L-PHA toxicity (MDAY-D2 tumor cells [4]) [µg/mL]
OC[C@@H]1[C@H](O)[C@H](O)CN1Cc1ccccc1 [GD002] | 217 | favourable to Mannosidase II | 19 | 11.42 | – | – | –
CN1C[C@@H](O)[C@@H](O)[C@H]1CO [GD003, N-methyl-DIL] | 13.6 | – | 26.3 | 0.517 | > 5000 | 312 | –
CCCCN1C[C@@H](O)[C@@H](O)[C@H]1CO [GD004, N-butyl-DIL] | 25.5 | – | 50.9 | 0.50 | > 2500 | 625 | –
CCN1C[C@@H](O)[C@@H](O)[C@H]1CO [GD005, N-ethyl-DIL] | 14.3 | – | 33.9 | 0.42 | > 5000 | 312 | –
CCCN1C[C@@H](O)[C@@H](O)[C@H]1CO [GD006, N-propyl-DIL] | 19.2 | – | 22.1 | 0.87 | > 2500 | 156 | –
OC[C@@H]1[C@H](O)[C@H](O)CN1CC1CC1 [GD008, N-cyclo-propyl-methyl-DIL] | 4.9 | – | 8.3 | 0.59 | > 2500 | 40 | –
CC(O)C1[C@H](O)[C@H](O)CN1CC1CC1 (stereo partly drawn) [GD013] | 193 | – | 114 | 1.69 | – | – | –
CC(O)C1[C@H](O)[C@H](O)CN1CC1CCCCC1 (stereo partly drawn) [GD014] | 157 | – | 140 | 1.12 | – | – | –
L-PHA: toxic plant lectin (leukoagglutinin) purchased from Pharmacia | – | – | – | – | – | – | 5

From patent US5773239A, “Mannosidase inhibitors, process for their preparation and their use as therapeutic agents” (Mount Sinai Hospital Corporation., priority 1995, dated 1998)
